Patent US20240425464A1, “Substituted Monohydrazides as Potent Antifungal Agents” (University of Kentucky Research Foundation, priority 2023, published 2024)
Converted amounts (≈) assume the structure as drawn. Where two headings read alike, the source gives them in different places.

Tests used:
Assay in all cases: MIC determination by in vitro antifungal assay
Type in all cases: cell-based
[1] = test system: Candida krusei ATCC 6258 (I)
Procedure, shortened: (§1)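 Broth microdilution following CLSI M27-A3/M38-A2 with minor modifications, in RPMI 1640 buffered to pH 7.0 with 0.165 M MOPS. Yeast inoculum came from an overnight YPD culture, set to OD600 0.12 (˜1×10^6 CFU/mL) and then diluted 1:100. Compounds were tested in two-fold dilutions at 0.06-31.3 μg/mL for 48 h at 35° C.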

[2] = test system: Candida parapsilosis ATCC 22019 (J)
Procedure, shortened: as §1

[3] = test system: Candida glabrata ATCC 2001 (H); conditions: ATCC 2001 in text
Procedure, shortened: as §1

[4] = test system: Aspergillus flavus ATCC MYA-3631 (O); conditions: strain O = A. flavus ATCC MYA-3631
Procedure, shortened: (§2)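 Fungi are exposed to compounds (0.06-31.3 μg/mL, double dilution) in RPMI 1640 adjusted to pH 7.0 with MOPS. Incubation runs 48 h at 35° C, based on CLSI M27-A3/M38-A2. Yeast suspensions start at ˜1×10^6 CFU/mL and are diluted 1:100.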

[5] = test system: Aspergillus terreus ATCC MYA-3633 (N); conditions: strain N = A. terreus ATCC MYA-3633
Procedure, shortened: as §2

[6] = test system: Aspergillus nidulans ATCC 38163 (P)
Procedure, shortened: as §2

[7] = test system: Cryptococcus neoformans ATCC MYA-895 (M)
Procedure, shortened: as §1

[8] = Pichia kudriavzevii, ATCC6258, strain I = C. krusei ATCC 6258, read-out: MIC
[9] = Lodderomyces parapsilosis, ATCC22019, strain J = C. parapsilosis ATCC 22019, read-out: MIC
[10] = Nakaseomyces glabratus, ATCC 2001 / ATCC 2004, strain H = C. glabrata ATCC 2004 (footnote), read-out: MIC
[11] = Aspergillus flavus, read-out: MIC
[12] = Aspergillus terreus, read-out: MIC
[13] = Aspergillus nidulans, ATCC38163, strain P = A. nidulans ATCC 38163, read-out: MIC
[14] = Cryptococcus neoformans, strain M = C. neoformans ATCC MYA-895, read-out: MIC
[15] = strain J = C. parapsilosis ATCC 22019
[16] = strain H = C. glabrata ATCC 2004 (footnote)
[17] = strain P = A. nidulans ATCC 38163
[18] = strain M = C. neoformans ATCC MYA-895

Row | SMILES | MIC [1, 8] | MIC [2, 9] | MIC [3, 10] | MIC [4, 11] | MIC [5, 12] | MIC [6, 13] | MIC [7, 14] | MIC ([1]; strain I = C. krusei ATCC 6258) | MIC [2, 15] | MIC [3, 16] | MIC [4] | MIC [5] | MIC [6, 17] | MIC [7, 18] | MIC ([7]; against strain M)
1 | O=C(NNc1ccc(F)cc1)c1ccc(Br)cn1 [Compound 4d] | 0.98 µg/mL (≈ 3.16 µM) | 7.8 µg/mL (≈ 25.2 µM) | > 31.3 µg/mL | 15.6 µg/mL (≈ 50.3 µM) | 7.8 µg/mL (≈ 25.2 µM) | 1.95 µg/mL (≈ 6.29 µM) | 0.98 µg/mL (≈ 3.16 µM) | – | – | – | – | – | – | – | –
2 | O=C(NNc1ccc(F)cc1)c1cccc(F)n1 [Compound 5d] | 0.49 µg/mL (≈ 1.97 µM) | 3.9 µg/mL (≈ 15.6 µM) | 15.6 µg/mL (≈ 62.6 µM) | 7.8 µg/mL (≈ 31.3 µM) | 1.95 µg/mL (≈ 7.82 µM) | 0.98 µg/mL (≈ 3.93 µM) | 0.49 µg/mL (≈ 1.97 µM) | – | – | – | – | – | – | – | –
3 | O=C(NNc1ccc(F)cc1F)c1ncc(F)cc1F [Compound 7g] | 0.98 µg/mL (≈ 3.44 µM) | 31.3 µg/mL (≈ 110 µM) | > 31.3 µg/mL | > 31.3 µg/mL | 7.8 µg/mL (≈ 27.3 µM) | 0.98 µg/mL (≈ 3.44 µM) | 0.98 µg/mL (≈ 3.44 µM) | – | – | – | – | – | – | – | –
4 | O=C(NNc1ccc(F)cc1)c1ccc(F)cc1F [Compound 1d] | 1.95 µg/mL (≈ 7.32 µM) | 15.6 µg/mL (≈ 58.6 µM) | 7.8 µg/mL (≈ 29.3 µM) | > 31.3 µg/mL | 3.9 µg/mL (≈ 14.6 µM) | 3.9 µg/mL (≈ 14.6 µM) | 0.49 µg/mL (≈ 1.84 µM) | – | – | – | – | – | – | – | –
5 | COc1ccc(NNC(=O)c2cccc(Br)n2)cc1 [Compound 6f] | 0.98 µg/mL (≈ 3.04 µM) | 3.9 µg/mL (≈ 12.1 µM) | 1.95 µg/mL (≈ 6.05 µM) | > 31.3 µg/mL | 7.8 µg/mL (≈ 24.2 µM) | 3.9 µg/mL (≈ 12.1 µM) | 1.95 µg/mL (≈ 6.05 µM) | – | – | – | – | – | – | – | –
6 | O=C(NNc1cccc(F)c1)c1ncc(F)cc1F [Compound 7a] | – | – | – | – | – | – | – | 0.24 μg/mL^−1 | 1.95 μg/mL^−1 | 31.3 μg/mL^−1 | >31.3 μg/mL^−1 | 3.9 μg/mL^−1 | 0.98 μg/mL^−1 | ≤0.06 μg/mL^−1 | –
7 | COc1ccc(NNC(=O)c2ccc(F)cn2)cc1 [Compound 3f] | – | – | – | – | – | – | – | 0.24 μg/mL^−1 | 3.9 μg/mL^−1 | 1.95 μg/mL^−1 | >31.3 μg/mL^−1 | 31.3 μg/mL^−1 | 1.95 μg/mL^−1 | ≤0.06 μg/mL^−1 | –
8 | O=C(NNc1ccc(F)cc1)c1nc(F)ccc1F [Compound 8d] | 0.24 µg/mL (≈ 0.898 µM) | 7.8 µg/mL (≈ 29.2 µM) | 15.6 µg/mL (≈ 58.4 µM) | 7.8 µg/mL (≈ 29.2 µM) | 1.95 µg/mL (≈ 7.3 µM) | 0.49 µg/mL (≈ 1.83 µM) | 0.49 µg/mL (≈ 1.83 µM) | – | – | – | – | – | – | – | –
9 | O=C(NNc1cc(F)ccc1F)c1ccc(F)cc1F [Compound 1h] | 3.9 µg/mL (≈ 13.7 µM) | 31.3 µg/mL (≈ 110 µM) | > 31.3 µg/mL | 15.6 µg/mL (≈ 54.9 µM) | > 31.3 µg/mL | 3.9 µg/mL (≈ 13.7 µM) | 0.98 µg/mL (≈ 3.45 µM) | – | – | – | – | – | – | – | 0.98 j·tg mL^−1
10 | O=C(NNc1ccc(Cl)cc1)c1ncc(F)cc1F [Compound 7e] | – | – | – | – | – | – | – | 1.95 μg/mL^−1 | 15.6 μg/mL^−1 | 3.9 μg/mL^−1 | >31.3 μg/mL^−1 | >31.3 μg/mL^−1 | 7.8 μg/mL^−1 | 1.95 μg/mL^−1 | –
11 | O=C(NNc1cc(Cl)cc(Cl)c1)c1ccccn1 [Compound 2j] | 0.98 µg/mL (≈ 3.47 µM) | 1.95 µg/mL (≈ 6.91 µM) | 7.8 µg/mL (≈ 27.6 µM) | > 31.3 µg/mL | 1.95 µg/mL (≈ 6.91 µM) | 0.49 µg/mL (≈ 1.74 µM) | 0.49 µg/mL (≈ 1.74 µM) | – | – | – | – | – | – | – | –
12 | O=C(NNc1cccc(F)c1)c1ccc(Br)cn1 [Compound 4a] | – | – | – | – | – | – | – | 0.24 μg/mL^−1 | 7.8 μg/mL^−1 | >31.3 μg/mL^−1 | 15.6 μg/mL^−1 | 0.98 μg/mL^−1 | 1.95 μg/mL^−1 | 0.06 μg/mL^−1 | –
13 | O=C(NNc1cccc(F)c1)c1cccc(Br)n1 [Compound 6a] | – | – | – | – | – | – | – | 0.49 μg/mL^−1 | 1.95 μg/mL^−1 | >31.3 μg/mL^−1 | 31.3 μg/mL^−1 | 3.9 μg/mL^−1 | 1.95 μg/mL^−1 | ≤0.06 μg/mL^−1 | –
14 | O=C(NNc1cccc(Cl)c1)c1ccc(F)cc1F [Compound 1b] | 0.98 µg/mL (≈ 3.47 µM) | 3.9 µg/mL (≈ 13.8 µM) | > 31.3 µg/mL | > 31.3 µg/mL | 7.8 µg/mL (≈ 27.6 µM) | 3.9 µg/mL (≈ 13.8 µM) | 1.95 µg/mL (≈ 6.9 µM) | – | – | – | – | – | – | – | –
15 | O=C(NNc1ccc(Cl)cc1)c1ccc(F)cn1 [Compound 3e] | – | – | – | – | – | – | – | 0.98 μg/mL^−1 | 31.3 μg/mL^−1 | 7.8 μg/mL^−1 | >31.3 μg/mL^−1 | >31.3 μg/mL^−1 | 15.6 μg/mL^−1 | 3.9 μg/mL^−1 | –
16 | COc1ccc(NNC(=O)c2cnccn2)cc1 [Compound 9f] | 0.98 µg/mL (≈ 4.01 µM) | 3.9 µg/mL (≈ 16 µM) | 0.98 µg/mL (≈ 4.01 µM) | > 31.3 µg/mL | > 31.3 µg/mL | 0.98 µg/mL (≈ 4.01 µM) | 0.98 µg/mL (≈ 4.01 µM) | – | – | – | – | – | – | – | –
17 | O=C(NNc1ccc(Cl)cc1)c1cccc(F)n1 [Compound 5e] | – | – | – | – | – | – | – | 1.95 μg/mL^−1 | 15.6 μg/mL^−1 | 3.9 μg/mL^−1 | >31.3 μg/mL^−1 | 31.3 μg/mL^−1 | 7.8 μg/mL^−1 | 1.95 μg/mL^−1 | –
18 | COc1cccc(NNC(=O)c2ccc(Br)cn2)c1 [Compound 4c] | 0.24 µg/mL (≈ 0.745 µM) | 3.9 µg/mL (≈ 12.1 µM) | 15.6 µg/mL (≈ 48.4 µM) | > 31.3 µg/mL | 3.9 µg/mL (≈ 12.1 µM) | 1.95 µg/mL (≈ 6.05 µM) | 0.49 µg/mL (≈ 1.52 µM) | – | – | – | – | – | – | – | –
19 | O=C(NNc1cccc(F)c1)c1cnccn1 [Compound 9a] | – | – | – | – | – | – | – | 0.49 μg/mL^−1 | 3.9 μg/mL^−1 | 7.8 μg/mL^−1 | 15.6 μg/mL^−1 | 0.98 μg/mL^−1 | 0.98 μg/mL^−1 | 0.12 μg/mL^−1 | –
20 | O=C(NNc1ccc(F)cc1)c1cccc(Br)n1 [Compound 6d] | 0.49 µg/mL (≈ 1.58 µM) | 7.8 µg/mL (≈ 25.2 µM) | > 31.3 µg/mL | 15.6 µg/mL (≈ 50.3 µM) | 3.9 µg/mL (≈ 12.6 µM) | 0.98 µg/mL (≈ 3.16 µM) | 0.98 µg/mL (≈ 3.16 µM) | – | – | – | – | – | – | – | –
21 | O=C(NNc1ccc(F)cc1F)c1ccccn1 [Compound 2g] | 0.49 µg/mL (≈ 1.97 µM) | 1.95 µg/mL (≈ 7.82 µM) | 0.98 µg/mL (≈ 3.93 µM) | 15.6 µg/mL (≈ 62.6 µM) | 0.98 µg/mL (≈ 3.93 µM) | 0.49 µg/mL (≈ 1.97 µM) | 0.24 µg/mL (≈ 0.963 µM) | – | – | – | – | – | – | – | –
22 | O=C(NNc1ccc(F)cc1F)c1ccc(F)cc1F [Compound 1g] | 7.8 µg/mL (≈ 27.4 µM) | 7.8 µg/mL (≈ 27.4 µM) | 1.95 µg/mL (≈ 6.86 µM) | > 31.3 µg/mL | 31.3 µg/mL (≈ 110 µM) | 1.95 µg/mL (≈ 6.86 µM) | 0.49 µg/mL (≈ 1.72 µM) | – | – | – | – | – | – | – | –
23 | O=C(NNc1cccc(F)c1)c1nc(F)ccc1F [Compound 8a] | – | – | – | – | – | – | – | 0.49 μg/mL^−1 | 7.8 μg/mL^−1 | 15.6 μg/mL^−1 | >31.3 μg/mL^−1 | 3.9 μg/mL^−1 | 1.95 μg/mL^−1 | ≤0.06 μg/mL^−1 | –
24 | O=C(NNc1cc(Cl)cc(Cl)c1)c1cnccn1 [Compound 9j] | 0.98 µg/mL (≈ 3.46 µM) | 3.9 µg/mL (≈ 13.8 µM) | 15.6 µg/mL (≈ 55.1 µM) | > 31.3 µg/mL | 3.9 µg/mL (≈ 13.8 µM) | 7.8 µg/mL (≈ 27.6 µM) | 0.49 µg/mL (≈ 1.73 µM) | – | – | – | – | – | – | – | –
